Data published in ChEMBL document CHEMBL3243937, “Adriamycin analogues. 2. Synthesis of 13-deoxyanthracyclines” (1978).

Columns and labels:
[1] = system: P388; test: Antitumor activity against mouse P388 cells allografted in mouse assessed as increase in survival time at 0.39 mg/kg, ip qd administered starting from day 1 to day 9 post challenge relative to control; format: functional; conditions: route intraperitoneal
[2] = system: Calf thymus DNA; test: Binding affinity to calf thymus DNA by spectral analysis; format: nucleic-acid assay; conditions: Bos taurus
[3] = system: L1210; test: Inhibition of RNA synthesis in mouse L1210 cells compound preincubated for 3 hrs followed by [3H]uridine addition measured after 1 hr by scintillation counting; format: functional
[4] = system: P388; test: Antitumor activity against mouse P388 cells allografted in mouse assessed as increase in survival time at 3.13 mg/kg, ip qd administered starting from day 1 to day 9 post challenge relative to control; format: functional; conditions: route intraperitoneal
[5] = system: P388; test: Antitumor activity against mouse P388 cells allografted in mouse assessed as increase in survival time at 1.56 mg/kg, ip qd administered starting from day 1 to day 9 post challenge relative to control; format: functional; conditions: route intraperitoneal
[6] = system: L1210; test: Inhibition of DNA synthesis in mouse L1210 cells compound preincubated for 3 hrs followed by [3H]thymidine addition measured after 1 hr by scintillation counting; format: functional
[7] = system: P388; test: Antitumor activity against mouse P388 cells allografted in mouse assessed as increase in survival time at 0.78 mg/kg, ip qd administered starting from day 1 to day 9 post challenge relative to control; format: functional; conditions: route intraperitoneal
[8] = system: P388; test: Antitumor activity against mouse P388 cells allografted in mouse assessed as increase in survival time at 1 mg/kg, ip qd administered starting on day 5,9 and 13 post challenge relative to control; format: functional; conditions: route intraperitoneal
[9] = system: P388; test: Antitumor activity against mouse P388 cells allografted in mouse assessed as increase in survival time at 2 mg/kg, ip qd administered starting on day 5,9 and 13 post challenge relative to control; format: functional; conditions: route intraperitoneal
[10] = system: P388; test: Antitumor activity against mouse P388 cells allografted in mouse assessed as increase in survival time at 8 mg/kg, ip qd administered starting on day 5,9 and 13 post challenge relative to control; format: functional; conditions: route intraperitoneal
[11] = system: P388; test: Antitumor activity against mouse P388 cells allografted in mouse assessed as increase in survival time at 16 mg/kg, ip qd administered starting on day 5,9 and 13 post challenge relative to control; format: functional; conditions: route intraperitoneal
[12] = system: P388; test: Antitumor activity against mouse P388 cells allografted in mouse assessed as increase in survival time at 0.20 mg/kg, ip qd administered starting from day 1 to day 9 post challenge relative to control; format: functional; conditions: dose 0.2 mg/kg; route intraperitoneal
[13] = system: P388; test: Antitumor activity against mouse P388 cells allografted in mouse assessed as increase in survival time at 4 mg/kg, ip qd administered starting on day 5,9 and 13 post challenge relative to control; format: functional; conditions: route intraperitoneal
[14] = system: P388; test: Antitumor activity against mouse P388 cells allografted in mouse assessed as increase in survival time at 12 mg/kg, ip qd administered starting from day 1 to day 9 post challenge relative to control; format: functional; conditions: route intraperitoneal
[15] = system: P388; test: Antitumor activity against mouse P388 cells allografted in mouse assessed as increase in survival time at 3.5 mg/kg, ip qd administered starting from day 1 to day 9 post challenge relative to control; format: functional; conditions: route intraperitoneal
[16] = system: P388; test: Antitumor activity against mouse P388 cells allografted in mouse assessed as increase in survival time at 1.5 mg/kg, ip qd administered starting from day 1 to day 9 post challenge relative to control; format: functional; conditions: route intraperitoneal
[17] = system: P388; test: Antitumor activity against mouse P388 cells allografted in mouse assessed as increase in survival time at 8 mg/kg, ip qd administered starting from day 1 to day 9 post challenge relative to control; format: functional; conditions: route intraperitoneal
[18] = system: P388; test: Antitumor activity against mouse P388 cells allografted in mouse assessed as increase in survival time at 4 mg/kg, ip qd administered starting from day 1 to day 9 post challenge relative to control; format: functional; conditions: route intraperitoneal
[19] = system: P388; test: Antitumor activity against mouse P388 cells allografted in mouse assessed as increase in survival time at 5.3 mg/kg, ip qd administered starting from day 1 to day 9 post challenge relative to control; format: functional; conditions: route intraperitoneal
[20] = system: P388; test: Antitumor activity against mouse P388 cells allografted in mouse assessed as increase in survival time at 6.25 mg/kg, ip qd administered starting from day 1 to day 9 post challenge relative to control; format: functional; conditions: route intraperitoneal

Compound	T/C [1] [%]	ΔTm [2] [°C]	IC50 [3] [µM]	T/C [4] [%]	T/C [5] [%]	IC50 [6] [µM]	T/C [7] [%]	T/C [8] [%]	T/C [9] [%]	T/C [10] [%]	T/C [11] [%]	T/C [12] [%]	T/C [13] [%]	T/C [14] [%]	T/C [15] [%]	T/C [16] [%]	T/C [17] [%]	T/C [18] [%]	T/C [19] [%]	T/C [20] [%]
CC[C@]1(O)Cc2c(O)c3c(c(O)c2[C@@H](O[C@H]2C[C@H](N)[C@H](O)[C@H](C)O2)C1)C(=O)c1c(OC)cccc1C3=O	140	50	0.84	160	160	1.3	134	–	–	–	–	–	–	–	–	–	–	–	–	–
COc1cccc2c1C(=O)c1c(O)c3c(c(O)c1C2=O)C[C@@](O)(C(=O)CO)C[C@@H]3O[C@H]1C[C@H](N)[C@H](O)[C@H](C)O1 [DOXORUBICIN]	174	13.4	0.58	–	176	1.5	197	133	133	157	130	160	142	–	–	–	–	–	–	–
CC[C@@]1(O)C[C@H](O[C@H]2C[C@H](N)[C@H](O)[C@H](C)O2)c2c(O)c3c(c(O)c2[C@H]1C(=O)OC)C(=O)c1cccc(O)c1C3=O.Cl	–	7.6	2.6	–	–	5.6	–	–	–	–	–	–	–	141	130	127	140	132	139	–
COc1cccc2c1C(=O)c1c(O)c3c(c(O)c1C2=O)C[C@@](O)(CCO)C[C@@H]3O[C@H]1C[C@H](N)[C@H](O)[C@H](C)O1 [13-DEOXYDOXORUBICIN]	140	6.15	1.1	164	156	1.8	161	–	–	–	–	–	–	–	–	–	–	–	–	153
COc1cccc2c1C(=O)c1c(O)c3c(c(O)c1C2=O)C[C@@](O)(C(C)=O)C[C@@H]3O[C@H]1C[C@H](N)[C@H](O)[C@H](C)O1 [DAUNORUBICIN]	153	–	0.33	–	148	0.66	167	–	–	134	127	144	131	–	–	–	–	–	–	–
